Patent US20260242405A1, “N-DERIVATIZED SIALIC ACIDS AND RELATED SIALOSIDES” (THE REGENTS OF THE UNIVERSITY OF CALIFORNIA, priority 2023, published 2026)

Test system: influenza NAs

Row | Substance | resistance of immobilized sialoside to NA-catalyzed cleavage during BLI incubation
1 | 4-Guanidino-Neu5Acα2-3LacNAcβPorNH-PEG4-Biotin [Compound 10d] | resistant to the NA-catalyzed cleavage
2 | 4NH2Neu5Acα2-3LacNAcβPorNH-PEG4-Biotin [Compound 9d] | bound to the NAs but was partially cleaved off during the incubation
